# In PubChem BioAssay AID2060896 (Molecular Pharmacology Branch, DTP, NCI, 2025):
# pIC50: −log10 of the molar value.
# Tested on: 941728-121-R-J1-PDC complex spheroid viability
# Assay: Anticancer human tumor 941728-121-R-J1-PDC patient-derived lung adenocarcinoma cell line growth inhibition [RAS]
# Settings: for pIC50: curve of first compound; for viability, T/C: stronger effect = lower value
# Outline: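 Multi-cell-type spheroids: tumor cells plus HUVEC endothelial cells and mesenchymal stem cells. RAS-pathway inhibitors were combined with targeted agents, each dosed in half-log steps down from clinical Cmax, or from 10 microM when Cmax was unknown.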
# [1] = second compound 0.00316 µM, first compound 0.0316 µM
# [2] = second compound 0.00316 µM, first compound 0.1 µM
# [3] = second compound 0.01 µM, first compound 0.0316 µM
# [4] = second compound 0.01 µM, first compound 0.1 µM
# [5] = second compound 0.0316 µM, first compound 0.0316 µM
# [6] = second compound 0.0316 µM, first compound 0.1 µM
# [7] = second compound 0.1 µM, first compound 0.0316 µM
# [8] = second compound 0.1 µM, first compound 0.1 µM
# [9] = second compound 0.316 µM, first compound 0.0316 µM
# [10] = second compound 0.316 µM, first compound 0.1 µM
# [11] = second compound 1 µM, first compound 0.0316 µM
# [12] = second compound 1 µM, first compound 0.1 µM
# 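Further: spheroids exposed to compounds for 7 days before readout.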
# 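Wherever viability, T/C is given: 100% = DMSO vehicle control viability.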
smiles,measurement,setting,value
CC(C)NCC(C(=O)N1CCN(c2ncnc3c2C(C)CC3O)CC1)c1ccc(Cl)cc1 (centres undefined) + C=CC(=O)N1CCN(c2nc(OCC3CCCN3C)nc3c(F)c(-c4nc(N)cc(C)c4C(F)(F)F)c(Cl)cc23)C(C)C1,pIC50,second compound 0.00316 µM,> 7.50
same,pIC50,second compound 0.01 µM,> 7.50
same,pIC50,second compound 0.0316 µM,> 7.50
same,pIC50,second compound 0.1 µM,> 7.50
same,pIC50,second compound 0.316 µM,> 7.50
same,pIC50,second compound 1 µM,> 7.50
same,"viability, T/C",[1],19.3%
same,"viability, T/C",[2],17.8%
same,"viability, T/C","second compound 0.00316 µM, first compound 0.316 µM",16.5%
same,"viability, T/C","second compound 0.00316 µM, first compound 1 µM",22.4%
same,"viability, T/C","second compound 0.00316 µM, first compound 3.16 µM",12.7%
same,"viability, T/C","second compound 0.00316 µM, first compound 10 µM",8.85%
same,"viability, T/C",[3],18%
same,"viability, T/C",[4],21.5%
same,"viability, T/C","second compound 0.01 µM, first compound 0.316 µM",18.3%
same,"viability, T/C","second compound 0.01 µM, first compound 1 µM",14.3%
same,"viability, T/C","second compound 0.01 µM, first compound 3.16 µM",13.1%
same,"viability, T/C","second compound 0.01 µM, first compound 10 µM",7.71%
same,"viability, T/C",[5],26.6%
same,"viability, T/C",[6],17.3%
same,"viability, T/C","second compound 0.0316 µM, first compound 0.316 µM",16.8%
same,"viability, T/C","second compound 0.0316 µM, first compound 1 µM",14.7%
same,"viability, T/C","second compound 0.0316 µM, first compound 3.16 µM",10.8%
same,"viability, T/C","second compound 0.0316 µM, first compound 10 µM",11.1%
same,"viability, T/C",[7],19.6%
same,"viability, T/C",[8],17.1%
same,"viability, T/C","second compound 0.1 µM, first compound 0.316 µM",17.9%
same,"viability, T/C","second compound 0.1 µM, first compound 1 µM",15%
same,"viability, T/C","second compound 0.1 µM, first compound 3.16 µM",10.6%
same,"viability, T/C","second compound 0.1 µM, first compound 10 µM",6.28%
same,"viability, T/C",[9],19.6%
same,"viability, T/C",[10],16.8%
same,"viability, T/C","second compound 0.316 µM, first compound 0.316 µM",15.3%
same,"viability, T/C","second compound 0.316 µM, first compound 1 µM",13.8%
same,"viability, T/C","second compound 0.316 µM, first compound 3.16 µM",13.5%
same,"viability, T/C","second compound 0.316 µM, first compound 10 µM",8.85%
same,"viability, T/C",[11],17.9%
same,"viability, T/C",[12],18.7%
same,"viability, T/C","second compound 1 µM, first compound 0.316 µM",16.8%
same,"viability, T/C","second compound 1 µM, first compound 1 µM",12%
same,"viability, T/C","second compound 1 µM, first compound 3.16 µM",12.3%
same,"viability, T/C","second compound 1 µM, first compound 10 µM",8.38%
CC(C)n1nc(-c2ccc3oc(N)nc3c2)c2c(N)ncnc21 + C=CC(=O)N1CCN(c2nc(OCC3CCCN3C)nc3c(F)c(-c4nc(N)cc(C)c4C(F)(F)F)c(Cl)cc23)C(C)C1,pIC50,second compound 0.00316 µM,> 9.50
same,pIC50,second compound 0.01 µM,> 9.50
same,pIC50,second compound 0.0316 µM,> 9.50
same,pIC50,second compound 0.1 µM,> 9.50
same,pIC50,second compound 0.316 µM,> 9.50
same,pIC50,second compound 1 µM,> 9.50
same,"viability, T/C","second compound 0.00316 µM, first compound 0.000316 µM",19.5%
same,"viability, T/C","second compound 0.00316 µM, first compound 0.001 µM",21.4%
same,"viability, T/C","second compound 0.00316 µM, first compound 0.00316 µM",19.4%
same,"viability, T/C","second compound 0.00316 µM, first compound 0.01 µM",14.4%
same,"viability, T/C",[1],11.6%
same,"viability, T/C",[2],9.02%
same,"viability, T/C","second compound 0.01 µM, first compound 0.000316 µM",19.6%
same,"viability, T/C","second compound 0.01 µM, first compound 0.001 µM",21.8%
same,"viability, T/C","second compound 0.01 µM, first compound 0.00316 µM",17.9%
same,"viability, T/C","second compound 0.01 µM, first compound 0.01 µM",14.4%
same,"viability, T/C",[3],10.7%
same,"viability, T/C",[4],6.76%
same,"viability, T/C","second compound 0.0316 µM, first compound 0.000316 µM",22.7%
same,"viability, T/C","second compound 0.0316 µM, first compound 0.001 µM",17.5%
same,"viability, T/C","second compound 0.0316 µM, first compound 0.00316 µM",19.2%
same,"viability, T/C","second compound 0.0316 µM, first compound 0.01 µM",14.4%
same,"viability, T/C",[5],10.2%
same,"viability, T/C",[6],7.17%
same,"viability, T/C","second compound 0.1 µM, first compound 0.000316 µM",22.1%
same,"viability, T/C","second compound 0.1 µM, first compound 0.001 µM",18.2%
same,"viability, T/C","second compound 0.1 µM, first compound 0.00316 µM",19.4%
same,"viability, T/C","second compound 0.1 µM, first compound 0.01 µM",11.9%
same,"viability, T/C",[7],10.1%
same,"viability, T/C",[8],7.39%
same,"viability, T/C","second compound 0.316 µM, first compound 0.000316 µM",19.4%
same,"viability, T/C","second compound 0.316 µM, first compound 0.001 µM",18%
same,"viability, T/C","second compound 0.316 µM, first compound 0.00316 µM",17.8%
same,"viability, T/C","second compound 0.316 µM, first compound 0.01 µM",14.7%
same,"viability, T/C",[9],9.18%
same,"viability, T/C",[10],8.16%
same,"viability, T/C","second compound 1 µM, first compound 0.000316 µM",19.5%
same,"viability, T/C","second compound 1 µM, first compound 0.001 µM",22.9%
same,"viability, T/C","second compound 1 µM, first compound 0.00316 µM",16.6%
same,"viability, T/C","second compound 1 µM, first compound 0.01 µM",13.4%
same,"viability, T/C",[11],11.6%
same,"viability, T/C",[12],8.02%
